# Experimental data reported in patent publication US8901138B2, “Sulfoximine substituted quinazolines for pharmaceutical compositions” (Boehringer Ingelheim International GmbH, priority 2012, dated 2014).
# pIC50: −log10 of the molar value.
# Assays:
# phosphorylated elF4E = details: cell culture cells transfected with MNK2 (MNK2a or MNK2b) or MNK1; cited from earlier work
# MNK2a = target: T1, MNK2a (Homo sapiens, UniProt Q9HBH9); assay: MNK2a in vitro kinase assay (assay 1), ADP-Glo; assay type: biochemical; details: preactivated GST-MNK2a, 20 μM ATP, read-out: MNK2 IC50
# T1 construct: made in house
# T1 sequence (Q9HBH9 whole entry): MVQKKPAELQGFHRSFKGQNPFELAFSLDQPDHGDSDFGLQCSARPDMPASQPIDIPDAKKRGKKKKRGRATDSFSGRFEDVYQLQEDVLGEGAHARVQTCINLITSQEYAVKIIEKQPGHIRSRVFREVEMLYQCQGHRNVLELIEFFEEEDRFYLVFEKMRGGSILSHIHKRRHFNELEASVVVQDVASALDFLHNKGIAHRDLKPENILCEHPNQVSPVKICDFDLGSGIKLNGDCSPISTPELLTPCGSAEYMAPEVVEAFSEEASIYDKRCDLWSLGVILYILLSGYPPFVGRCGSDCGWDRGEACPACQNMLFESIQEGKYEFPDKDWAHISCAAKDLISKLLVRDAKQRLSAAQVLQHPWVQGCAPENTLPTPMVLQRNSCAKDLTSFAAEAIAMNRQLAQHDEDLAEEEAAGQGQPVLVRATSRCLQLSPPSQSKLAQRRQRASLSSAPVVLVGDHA
# How it was run: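 Preactivated GST-MNK2a (10 nM) with eIF4E peptide (25 μM) and ATP (20 μM) in HEPES/DTT/MgCl2 buffer, 90 min at room temperature, final DMSO <3%. ADP formed read by ADP-Glo luminescence and normalised to vehicle and 20 μM reference-inhibitor controls; IC50 from dose-response curves.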
# MNK1a = MNK1a (Homo sapiens, UniProt Q9BUB5); assay: MNK1 in vitro kinase assay (assay 2), Z'-LYTE; assay type: biochemical; details: for inhibition at 1 µM: compound concentration of 1 μM; for pIC50: pre-activated GST-MNK1a
# MNK1a, sequence (Q9BUB5 1-424 isoform Q9BUB5-2): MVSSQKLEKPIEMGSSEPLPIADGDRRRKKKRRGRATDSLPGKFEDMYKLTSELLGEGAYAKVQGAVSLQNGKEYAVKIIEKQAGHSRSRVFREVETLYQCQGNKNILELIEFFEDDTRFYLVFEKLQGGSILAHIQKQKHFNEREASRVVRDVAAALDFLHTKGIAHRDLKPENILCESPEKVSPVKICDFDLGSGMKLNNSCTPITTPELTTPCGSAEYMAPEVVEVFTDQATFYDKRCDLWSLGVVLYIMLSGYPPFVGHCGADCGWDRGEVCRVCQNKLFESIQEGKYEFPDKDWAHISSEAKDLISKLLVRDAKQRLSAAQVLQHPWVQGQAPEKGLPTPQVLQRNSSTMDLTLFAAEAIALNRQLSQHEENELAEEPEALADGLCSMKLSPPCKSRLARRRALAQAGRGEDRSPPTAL
# How it was run: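 Pre-activated GST-MNK1a (13.5-54 ng) with 2 μM Ser/Thr 07 FRET peptide in 50 mM HEPES pH 7.5, 10 mM MgCl2, 2 mM MnCl2, 1 mM EGTA, 1 mM DTT, 1% DMSO; 1 h kinase then 1 h development at room temperature. Coumarin/fluorescein emission ratio gives % phosphorylation; sigmoidal dose-response fit.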
SMILES,reduction of phosphorylated elF4E (phosphorylated elF4E),pIC50 (MNK2a),inhibition at 1 µM (MNK1a) [%],pIC50 (MNK1a)
Nc1ncnc2n[nH]c(Nc3ccc(F)cc3)c12 [CGP57380],strong reduction,,,
CS(C)(=O)=Nc1cc(Cl)c2c(Nc3ccc(F)cc3O[C@@H]3CO[C@@H]4CCO[C@@H]43)ncnc2c1 [Example 1.4],,9.00,100,7.60
Cc1cc(N=S(C)(=O)C2CC2)cc2ncnc(Nc3ccc(F)cc3O[C@@H]3CO[C@@H]4CCO[C@@H]43)c12 (stereo partly shown) [Example 2.114],,8.70,96,
Cc1cc(N=S(C)(C)=O)cc2ncnc(Nc3cccnc3O[C@@H]3CCCNC3)c12 [Example 3.6],,7.16,80,
Cc1cc(N=S2(=O)CCC2)cc2ncnc(Nc3ccc(F)cc3O[C@@H]3CO[C@@H]4CCO[C@@H]43)c12 [Example 2.106],,9.00,98,
Cc1cc(N=S(C)(=O)C(C)C)cc2ncnc(Nc3ccc(F)cc3O[C@H]3CCOC3)c12 (stereo partly shown) [Example 2.104],,8.40,95,
CCS(C)(=O)=Nc1cc(C)c2c(Nc3cccnc3O[C@H]3CC[C@H](O)CC3)ncnc2c1 (stereo partly shown) [Example 2.44],,8.52,100,
Cc1cc(N=S(C)(C)=O)cc2ncnc(Nc3ccc(F)cc3OC3(C)CC3C)c12 (stereo not shown) [Example 1.33],,8.70,,6.96
CS(C)(=O)=Nc1cc(F)c2c(Nc3ccc(F)cc3O[C@@H]3CCN(CCO)C3)ncnc2c1 [Example 6.15],,7.62,82,
Cc1cc(N=S2(=O)CCNCC2)cc2ncnc(Nc3ccc(F)cc3O[C@@H]3CO[C@H]4[C@@H]3OC[C@H]4O)c12 [Example 3.3],,8.30,95,
Cc1cc(N=S2(=O)CCCC2)cc2ncnc(Nc3ccc(F)cc3O[C@@H]3CO[C@@H]4OCC[C@@H]43)c12 (racemic) [Example 2.82],,8.30,88,
COCCS(C)(=O)=Nc1cc(C)c2c(Nc3ccc(F)cc3O[C@H]3CC[C@H](OC)CC3)ncnc2c1 (stereo partly shown) [Example 2.87],,8.15,79,
Cc1cc(N=S(C)(C)=O)cc2ncnc(Nc3ccc(F)cc3OC3CNOC3)c12 (stereo not shown) [Example 7.18],,8.70,93,
Cc1cc(N=S(C)(C)=O)cc2ncnc(Nc3ccc(F)cc3O[C@@H]3CO[C@@H]4CCC[C@@H]43)c12 [Example 2.122],,8.70,98,
Cc1cc(N=S(C)(C)=O)cc2ncnc(Nc3ccc(C#N)nc3OC3CCOCC3)c12 [Example 1.38],,7.92,99,
Cc1cc(N=S(C)(C)=O)cc2ncnc(Nc3cccnc3OC3CCOCC3)c12 [Example 2.6],,8.40,92,
Cc1cc(N=S2(=O)CCCC2)cc2ncnc(Nc3cccnc3OC3COCCOC3)c12 [Example 2.88],,8.30,95,
Cc1cc(N=S(C)(C)=O)cc2ncnc(Nc3ccc(F)cc3O[C@@H]3CCNC3)c12 [Example 3.11],,7.49,78,
Cc1cc(N=S(C)(C)=O)cc2ncnc(Nc3ccc(F)cc3O[C@H]3CO[C@H]4[C@@H]3OC[C@@H]4O)c12 [Example 2.80],,7.72,73,
CS(C)(=O)=Nc1cc(F)c2c(Nc3ccc(F)cc3O[C@@H]3CCN(CC(F)F)C3)ncnc2c1 [Example 6.16],,8.15,90,
